In patent EP0863769B1 (priority 1996, dated 1998) one finds Kd data, which are given here for one substance.

Some targets named below: A/Chile/1/83; A/FW/1/50; B/USSR/100/83; A/England/321/77; B/Ann Arbor/1/86; A/Sichuan/1/87; A/USSR/3/85; A/USSR/90/77; B/Yamagata/11/88; X31 (A/Aichi/2/68).
What all share (assay type): binding, Influenza Viren
Common to all, as to conditions: read-out: Affinität der Bindung an Virus, Kaff

For the substance “Poly-N-(2-Hydroxyethyl)-acrylamid mit 20% mol. 6SLN [6SLN-PAA]”, the Kd at A/Chile/1/83 was 6000 nM; on A/FW/1/50 it was 3000 nM; at B/USSR/100/83, 2000 nM; at A/England/321/77, 10 nM; at B/Ann Arbor/1/86 it was 3000 nM; at A/Sichuan/1/87, 100 nM. Moreover, the Kd at A/USSR/3/85 was 100 nM; at A/USSR/90/77, 300 nM; on B/Yamagata/11/88, 100000 nM; at X31 (A/Aichi/2/68), 3000 nM.
